Measured values taken from patent US4663457A, “1-cyclopropyl-6,7-dihalo-1,4-dihydro-4-oxo-1,8-naphthyridine -3-carboxylic acid and their esters, useful as intermediates for preparing the 7-amine substituted naphthyridines” (Warner-Lambert Company, priority 1985, dated 1987).
≈ marks a conversion by molar mass, not a printed value. Where two headings read alike, the source gives them in different places.

Assays:
Test in all cases: in vitro antibacterial activity, MIC by microtitration dilution method
Assay type in all cases: cell-based
[1] = test system: Escherichia coli Vogel; settings: read-out: Minimal Inhibitory Concentration MIC
Description: (§1) The compounds of the invention display antibacterial activity when tested by the microtitration dilution method as described in Heifetz, et al, Antimicr. Agents & Chemoth., 6, 124 (1974), which is incorporated herein by reference.
(§2) By use of the above referenced method, the followed minimum inhibitory concentration values (MICs in μg/ml) were obtained for representative compounds of the invention.

[2] = test system: Streptococcus faecalis MGH-2; settings: Enterococcus faecalis, MGH2, read-out: Minimal Inhibitory Concentration MIC
Description: as §1, §2

[3] = test system: Streptococcus pneumoniae SV-1; settings: SV1, read-out: Minimal Inhibitory Concentration MIC
Description: as §1, §2

[4] = test system: Staphylococcus aureus UC-76; settings: UC76, read-out: Minimal Inhibitory Concentration MIC
Description: as §1, §2

[5] = test system: Enterobacter cloacae MA 2646; settings: MA2646, read-out: Minimal Inhibitory Concentration MIC
Description: as §1, §2

[6] = test system: Pseudomonas aeruginosa UI-18; settings: UI18, read-out: Minimal Inhibitory Concentration MIC
Description: as §1, §2

[7] = test system: Proteus rettgeri M 1771; settings: Providencia rettgeri, M1771, read-out: Minimal Inhibitory Concentration MIC
Description: as §1, §2

[8] = test system: Klebsiella pneumoniae MGH-2; settings: MGH2, read-out: Minimal Inhibitory Concentration MIC
Description: as §1, §2

[9] = test system: Staphylococcus aureus H 228; settings: H228, read-out: Minimal Inhibitory Concentration MIC
Description: as §1, §2

[10] = test system: Streptococcus pyogenes C-203
Description: Agents & Chemoth., 6, 124 (1974), which is incorporated herein by reference.

[11] = C203, in vitro, Streptococcus pyogenes C-203, read-out: Minimal Inhibitory Concentration MIC

Compound	MIC [1]	MIC [2]	MIC [3]	MIC [4]	MIC [5]	MIC [6]	MIC [7]	MIC [8]	MIC [9]	MIC [10, 11]	MIC ([10]; Streptococcus pyogenes, C203, read-out: Minimal Inhibitory Concentration MIC)
O=C(O)c1cn(C2CC2)c2nc(N3CCNCC3)c(F)cc2c1=O [Ex. 1, 1-Cyclopropyl-6-fluoro-1,4-dihydro-4-oxo-7-(1-piperazinyl)-1,8-naphthyridine-3-carboxylic acid]	≤ 0.1 µg/mL	1.6 µg/mL (≈ 4.81 µM)	1.6 µg/mL (≈ 4.81 µM)	0.4 µg/mL (≈ 1.2 µM)	0.1 µg/mL (≈ 0.301 µM)	0.2 µg/mL (≈ 0.602 µM)	0.2 µg/mL (≈ 0.602 µM)	0.1 µg/mL (≈ 0.301 µM)	1.6 µg/mL (≈ 4.81 µM)	1.6 µg/mL (≈ 4.81 µM)	–
CN1CCN(c2nc3c(cc2F)c(=O)c(C(=O)O)cn3C2CC2)CC1 [Ex. 2, 1-Cyclopropyl-6-fluoro-1,4-dihydro-7-(4-methyl-1-piperazinyl)-4-oxo-1,8-naphthyridine-3-carboxylic acid]	≤ 0.1 µg/mL	0.8 µg/mL (≈ 2.31 µM)	6.3 µg/mL (≈ 18.2 µM)	0.1 µg/mL (≈ 0.289 µM)	≤ 0.1 µg/mL	0.4 µg/mL (≈ 1.15 µM)	0.4 µg/mL (≈ 1.15 µM)	≤ 0.1 µg/mL	0.4 µg/mL (≈ 1.15 µM)	–	3.1 µg/mL (≈ 8.95 µM)
O=C(O)c1cn(C2CC2)c2c(F)c(N3CCNCC3)c(F)cc2c1=O [Ex. 3, 1-Cyclopropyl-6,8-difluoro-1,4-dihydro-4-oxo-7-(1-piperazinyl)-3-quinolinecarboxylic acid]	≤ 0.1 µg/mL	0.4 µg/mL (≈ 1.15 µM)	0.8 µg/mL (≈ 2.29 µM)	≤ 0.1 µg/mL	≤ 0.1 µg/mL	0.2 µg/mL (≈ 0.573 µM)	≤ 0.1 µg/mL	≤ 0.1 µg/mL	0.4 µg/mL (≈ 1.15 µM)	0.4 µg/mL (≈ 1.15 µM)	–
O=C(O)c1cn(C2CC2)c2c(F)c(N3CCC(O)C3)c(F)cc2c1=O (stereo not shown) [Ex. 4, 1-Cyclopropyl-6,8-difluoro-1,4-dihydro-7-(3-hydroxy-1-pyrrolidinyl)-4-oxo-3-quinolinecarboxylic acid]	0.1 µg/mL (≈ 0.285 µM)	0.1 µg/mL (≈ 0.285 µM)	0.4 µg/mL (≈ 1.14 µM)	0.013 µg/mL (≈ 0.0371 µM)	0.2 µg/mL (≈ 0.571 µM)	0.8 µg/mL (≈ 2.28 µM)	0.2 µg/mL (≈ 0.571 µM)	0.05 µg/mL (≈ 0.143 µM)	0.025 µg/mL (≈ 0.0714 µM)	0.4 µg/mL (≈ 1.14 µM)	–
